Measured values as given in the supplement of paper PMC10307832.

Assays:
Assay in all cases: relative viability (nuclei count vs DMSO), 5 days (fraction); higher = more cells survive
Crenolanib + Pictilisib = compound: CC1(COc2ccc3c(c2)ncn3-c2ccc3cccc(N4CCC(N)CC4)c3n2)COC1 [Crenolanib] + CS(=O)(=O)N1CCN(Cc2cc3nc(-c4cccc5[nH]ncc45)nc(N4CCOCC4)c3s2)CC1 [Pictilisib] (partner 1 µM)
Outline: (§1)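 After 5 days of treatment, lung cancer cells in 1536-well plates were fixed and stained in a single step (final 0.05% Triton X-100, 1% formaldehyde, 1 ug/ml Hoechst) and their nuclei counted on 4× images. Treatment had been applied by pin tool the day after seeding as one drug alone or as a fixed anchor-drug dose with five library-drug doses (not always all listed) in √10 steps. Relative viability is the nuclei count of treated wells divided by that of vehicle wells, and values are medians of duplicate plates.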

Tivantinib + Lapatinib = compound: O=C1NC(=O)[C@@H](c2cn3c4c(cccc24)CCC3)[C@@H]1c1c[nH]c2ccccc12 [Tivantinib] + CS(=O)(=O)CCNCc1ccc(-c2ccc3ncnc(Nc4ccc(OCc5cccc(F)c5)c(Cl)c4)c3c2)o1 [Lapatinib] (partner 2 µM)
Outline: as §1

Crenolanib + Lapatinib = compound: CC1(COc2ccc3c(c2)ncn3-c2ccc3cccc(N4CCC(N)CC4)c3n2)COC1 [Crenolanib] + CS(=O)(=O)CCNCc1ccc(-c2ccc3ncnc(Nc4ccc(OCc5cccc(F)c5)c(Cl)c4)c3c2)o1 [Lapatinib] (partner 2 µM)
Outline: as §1

Tivantinib + Alpelisib = compound: O=C1NC(=O)[C@@H](c2cn3c4c(cccc24)CCC3)[C@@H]1c1c[nH]c2ccccc12 [Tivantinib] + Cc1nc(NC(=O)N2CCC[C@H]2C(N)=O)sc1-c1ccnc(C(C)(C)C(F)(F)F)c1 [Alpelisib] (partner 2 µM)
Outline: as §1

Row | Cell Line | relative viability (Crenolanib + Pictilisib; first compound 0.01 µM) | relative viability (Crenolanib + Pictilisib; first compound 0.03162 µM) | relative viability (Crenolanib + Pictilisib; first compound 0.1 µM) | relative viability (Crenolanib + Pictilisib; first compound 0.3162 µM) | relative viability (Crenolanib + Pictilisib; first compound 1 µM) | relative viability (Tivantinib + Lapatinib; first compound 0.01 µM) | relative viability (Tivantinib + Lapatinib; first compound 0.03162 µM) | relative viability (Tivantinib + Lapatinib; first compound 0.1 µM) | relative viability (Tivantinib + Lapatinib; first compound 0.3162 µM) | relative viability (Crenolanib + Lapatinib; first compound 0.01 µM) | relative viability (Crenolanib + Lapatinib; first compound 0.03162 µM) | relative viability (Crenolanib + Lapatinib; first compound 0.1 µM) | relative viability (Crenolanib + Lapatinib; first compound 0.3162 µM) | relative viability (Crenolanib + Lapatinib; first compound 1 µM) | relative viability (Tivantinib + Alpelisib; first compound 0.01 µM) | relative viability (Tivantinib + Alpelisib; first compound 0.03162 µM) | relative viability (Tivantinib + Alpelisib; first compound 0.1 µM) | relative viability (Tivantinib + Alpelisib; first compound 0.3162 µM)
1 | NCI-H647 | 0.448 | 0.314 | 0.412 | 0.423 | 0.454 | 1.09 | 0.86 | 0.86 | 1.07 | 1.04 | 0.996 | 1.05 | 1.16 | 1.08 | 1.15 | 1.16 | 1.09 | 1.14
2 | NCI-H1355 | 0.459 | 0.48 | 0.436 | 0.402 | 0.389 | 1.04 | 0.928 | 0.899 | 1.09 | 1.02 | 1.04 | 0.999 | 1.15 | 0.78 | 0.852 | 0.839 | 0.877 | 0.751
3 | NCI-H23 | 0.482 | 0.484 | 0.399 | 0.487 | 0.351 | 1.05 | 1.22 | 1.03 | 1.18 | 1.04 | 1.16 | 0.977 | 1.22 | 0.992 | 0.778 | 0.623 | 0.717 | 0.557
4 | LC-2-ad | 0.5 | 0.446 | 0.434 | 0.465 | 0.375 | 1.03 | 0.929 | 0.928 | 1.06 | 1 | 0.922 | 0.982 | 1.05 | 0.992 | 0.889 | 0.93 | 0.847 | 0.904
5 | NCI-H650 | 0.9 | 0.806 | 0.901 | 0.801 | 0.83 | 0.907 | – | 1.02 | 0.964 | 0.83 | 1.15 | 0.884 | 0.841 | 0.655 | 1.24 | – | 0.956 | 1.02
6 | SK-MES-1 | 0.337 | 0.33 | 0.375 | 0.385 | 0.377 | 0.441 | 0.426 | 0.387 | 0.417 | 0.449 | 0.504 | 0.422 | 0.467 | 0.458 | 0.912 | 0.867 | 0.929 | 0.444
7 | NCI-H2170 | 0.376 | 0.296 | 0.32 | 0.272 | 0.305 | 0.157 | 0.252 | 0.277 | – | 0.272 | 0.283 | 0.281 | 0.276 | 0.247 | 0.806 | 0.852 | 0.674 | –
8 | NCI-H2087 | 0.804 | 0.918 | 0.665 | 0.761 | 0.861 | 1.1 | 1.16 | 0.862 | 1.13 | 1.14 | 1 | 0.985 | 1.18 | 1.09 | 1 | 1.06 | 1.02 | 0.956
9 | NCI-H838 | 0.492 | 0.499 | 0.418 | 0.418 | 0.381 | 1.04 | 0.96 | 0.891 | 0.894 | 1.07 | 0.966 | 0.993 | 1.02 | 0.805 | 0.915 | 1.06 | 0.973 | 0.953
10 | NCI-H460 | 0.379 | 0.306 | 0.316 | 0.363 | 0.308 | 0.905 | 0.922 | 0.889 | 0.99 | 0.997 | 1 | 1.04 | 1.46 | 1.01 | 0.508 | 0.373 | 0.447 | 0.473
11 | LU99A | 0.37 | 0.324 | 0.325 | 0.393 | 0.287 | 0.987 | 1.14 | 0.889 | 0.905 | 1.08 | 0.988 | 1 | 1.03 | 0.955 | 0.477 | 0.477 | 0.453 | 0.369
12 | NCI-H322M | 0.519 | 0.499 | 0.527 | 0.517 | 0.493 | 0.568 | 0.488 | 0.609 | 0.588 | 0.613 | 0.64 | 0.543 | 0.567 | 0.587 | 0.699 | 0.891 | 0.719 | 0.546
13 | NCI-H520 | 0.267 | 0.324 | 0.326 | 0.295 | 0.301 | 0.893 | 0.822 | 0.638 | 0.795 | 0.664 | 0.848 | 0.88 | 0.85 | 0.778 | 0.921 | 0.991 | 0.815 | 0.925
